# Measured values as given in publication PMC9814779, “A triple farnesoid X receptor and peroxisome proliferator-activated receptor α/δ activator reverses hepatic fibrosis in diet-induced NASH in mice” (Communications Chemistry, 2020).
# Tested on: FXR- and PPAR-regulated gene expression in HepG2 cells
# Experiment: FXR- and PPAR-regulated gene expression in HepG2 cells (qRT-PCR)
# Assay type: cell-based, human
# Details: 12 h
# Experimental: HepG2 cells (DSMZ) were grown in DMEM high glucose, supplemented with 10% FCS, 1 mM SP, penicillin (100 U/mL), and streptomycin (100 μg/mL) at 37 °C and 5% CO2 and seeded in 6-well plates (2 × 10^6 per well). After 24 h, medium was changed to Minimal Essential Medium supplemented with 1% charcoal-stripped FCS, penicillin (100 U/mL), streptomycin (100 μg/mL), and 2 mM L-glutamine. After an additional 24 h, cells were incubated with test compound 41 (0.1 µM, 0.3 µM, 1 μM), OCA (1 μM), or elafibranor (1 µM) dissolved in the same medium with 0.1% DMSO or medium with 0.1% DMSO alone as untreated control for 12 h, harvested, washed with cold phosphate-buffered saline (PBS), and then directly used for RNA extraction. C2C12 cells (American Type Culture Collection, ATCC) were grown in DMEM high glucose, supplemented with 10% FCS, 1 mM SP, penicillin (100 U/mL), and streptomycin (100 μg/mL) at 37 °C and 5% CO2 and seeded in 6-well plates (1 × 10^6 per well). Upon reaching confluence, medium was changed to Eagle’s Minimal Essential Medium supplemented with 2% horse serum, penicillin (100 U/mL), streptomycin (100 μg/mL), and 2 mM L-glutamine. Cells were then differentiated in this medium for 5 days before incubation with test compounds 41 (1 μM) or L165,041 (1 μM) dissolved in the same medium with 0.1% DMSO or medium with 0.1% DMSO alone as untreated control for 8 h. Cells were harvested, washed with cold PBS, and then directly used for RNA extraction. Total RNA was extracted from HepG2 cells or C2C12 cells using the total RNA Mini Kit (R6834-02, Omega Bio-Tek, Inc., Norcross, GA, USA). Two micrograms of extracted RNA were then reverse-transcribed into cDNA with the High-Capacity cDNA Reverse Transcription Kit (4368814, Thermo Fischer Scientific, Inc.). FXR- and PPAR-regulated gene expression was then studied by quantitative real-time PCR (qRT-PCR) analysis with a StepOnePlus System (Life Technologies, Carlsbad, CA, USA) using PowerSYBRGreen (Life Technologies; 12.5 μL per well). Each sample was set up in duplicates and repeated in four independent experiments. Data were analyzed by the comparative ΔΔCT method with glyceraldehyde 3-phosphate dehydrogenase (GAPDH) as reference gene. The following primers were used for HepG2 cells (human genes): hGAPDH: 5 ′-ATATGATTCCACCCATGGCA (fw), 5′-GATGATGACCCTTTTGGCTC (rev); hSHP: 5′-GCTGTCTGGAGTCCTTCTGG (fw), 5′-CCAATGATAGGGCGAAAGAAGAG (rev); hCYP7A1: 5′-CACCTTGAGGACGGTTCCTA (fw), 5′-CGATCCAAAGGGCATGTAGT (rev); hBSEP: 5′-CATGGTGCAAGAAGTGCTGAGT (fw), 5′-AAGCGATGAGCAACTGAAATGAT (rev); hACOX: 5′-ACT CGC AGC CAG CGT TAT G (fw), 5′-AGG GTC AGC GAT GCC AAA C (rev); hPDK4: 5′-AGAGCCTGATGGATTTGGTG (fw), 5′-GCTTGGGTTTCCTGTCTGTG (rev); hCPT1: 5′-ACAGTCGGTGAGGCCTCTTAT (fw), 5′-TCTTGCTGCCTGAATGTGAGT (rev); hFGF21: 5′-ATGGATCGCTCCACTTTGACC (fw), 5′-GGGCTTCGGACTGGTAAACAT (rev). The following primers were used for C2C12 cells (murine genes)[36]: mGAPDH: 5′-CGACTTCAACAGCAACTCCCACTCTTCC (fw), 5′-TGGGTGGTCCAGGGTTTCTTACTCCTT (rev); mPCK: 5′-TGTTTACTGGGAAGGCATCG (fw), 5′-CAGAATCTCGAGTTGGGATGG (rev); mGLUT3: 5′-CGTCCTTGAAGATTCCTGTTGA (fw), 5′-GTC ACC CAA CTA CGT CCA G (rev); mLPL: 5′-GTCAGGTTCTCTCTTGTACAGG (fw), 5′-TCTAACTGCCACTTCAACCAC (rev).
# [1] = HepG2, 1 µM, vs. vehicle-treated cells
SMILES,"mRNA expression of FXR-regulated genes (BSEP, SHP, CYP7A1) [1]","mRNA expression of PPAR-regulated genes (ACOX, PDK4, CPT1, FGF21) [1]","dose dependence of BSEP, PDK4 and CPT1 expression (HepG2, 0.1 µM, 0.3 µM, 1 μM)"
"CC[C@H]1[C@@H](O)[C@@H]2[C@H](CC[C@]3(C)[C@@H]([C@H](C)CCC(=O)O)CC[C@@H]23)[C@@]2(C)CC[C@@H](O)C[C@@H]12 [OCA, 6α-ethylchenodeoxycholic acid, reference compound]",upregulation of BSEP and small heterodimer partner (SHP) mRNA as well as downregulation of CYP7A1,slightly induced ACOX and FGF21 expression,–
"CC(C)(C)c1ccc(C(=O)Nc2cccc(CCC(=O)O)c2)c(NC(=O)c2ccc(-c3ccco3)cc2)c1 [compound 41, 3-(3-[4-{tert-Butyl}-2-{4-(2-furyl)}benzamido]phenyl)propanoic acid]",upregulation of BSEP and small heterodimer partner (SHP) mRNA as well as downregulation of CYP7A1,–,dose-dependent effects
